Measured values from patent publication US20070111258A1, “Compositions and methods for modulating the acute phase response” (priority 2005, published 2007).

System: CREBH mRNA
Experiment: CREBH mRNA induction in H2.35 cells (Northern blot, quantitative real-time RT-PCR)
Assay type: cell-based
Conditions: murine H2.35 hepatoma cells; IL6 40 ng/ml, TNFα 20 ng/ml, IL1β 40 ng/ml, DTT 5 mM, Tg 0.5 μM, Tm 5 μg/ml, BFA 0.5 μg/ml; 4, 8, 12 hours
Description: FIG. 1 depicts the induction of expression of CREBH during fetal liver development and by proinflammatory cytokines. (A) Structural comparison of CREBH and ATF6. The domains are indicated by residue numbers of amino acids. (B) Northern blot analysis of CREBH mRNA levels in various tissues from mice. Tissue samples were collected from 3-month-old wild-type C57BL/6J mice. Levels of β-actin mRNA were determined for control of sample loading. (C) Expression profile of CREBH mRNA in fetal livers during embryogenesis. (D) Induction of CREBH mRNA in murine hepatoma cell line H2.35 under IL6 (40 ng/ml) stimulation for various time points. For panels A-D, experiments were performed at least 3 times and representative data are shown.
FIG. 2 depicts the analysis of gene expression in H2.35 cells. H2.35 cells were treated with 20 ng/ml TNFα, 40 ng/ml IL1β, 20 μg.ml LPS, 5 mM DTT, 0.5 μM Tg, 5 μg/ml Tm or 0.5 μg/ml BFA for 4, 8 and 12 hours, respectively. Levels of CREBH mRNA (A) and spliced XBP1 mRNA (B) in H2.35 were determined by quantitative real-time RT-PCR. Fold changes of mRNA induction were determined after normalization of the mRNA levels to internal control 18S ribosomal RNA levels. […] However, expression from the SAP or CRP promoter-reporter plasmids is sufficiently measurable in H2.35 cells so that it is possible to investigate transcriptional activation effects of CREBH on the CRP and SAP promoters by reporter assays in H2.35 cells. These reporter experiments are not possible in non-hepatocyte cell lines. However, for non-hepatocyte cell lines, such as wild-type and mutant CHO cells, CREBH cleavage and activation could be measured using the UPRE reporter assay. (C) Summary of stimuli that induce CREBH mRNA, NF-κB activation and the UPR in H2.35 and HepG2 cells. (D) Expression of BiP and GRP94 in H2.35 cells over-expressing CREBH or ATF6. H2.35 cells in a 35 mm collagen-coated plate were transfected with 1.5 μg empty DNA vector, vector expressing the nuclear form of CREBH (CREBH-N) or vector expressing nuclear form of ATF6 (ATF6 p50), respectively. Expression levels of BiP and GRP 94 were determined by Western blot analysis by using a murine and —BiP monoclonal antibody and a murine anti-GRP94 monoclonal antibody, respectively. The membranes were re-blotted with an anti-α-actin antibody for control of sample loading.
Northern blot analysis was performed according to standard procedures (Sambrook et al., 1989). ^32P-labeled probes were prepared using a random prime labeling system (Amersham Pharmacia, Piscataway, N.J., USA). A 210 bp mouse CREBH cDNA fragment, a 250 bp mouse CRP cDNA fragment and a 260 bp mouse SAP cDNA fragment were amplified from murine total RNA by reverse transcription-PCR system (Roche Applied Science), respectively, and were used as probes for Northern blot analyses. Total RNA (15 μg) per sample purified from cultured cells or murine tissues was used for Northern blot analysis. Quantitative real-time RT-PCR was performed as previously described (Back et al., 2005). Briefly, total cellular RNA prepared was reverse-transcribed to cDNA using a random primer (Applied Biosystems). The reaction mixture, containing SYBR Green PCR Master Mix (Applied Biosystems), was run in a 7900HT Fast Real-Time PCR System (Applied Biosystems). Real-time PCR primer sequences for quantification of murine XBP1 mRNA splicing are: the forward primer 5′-[…]-3′, and the reverse primer 5′-[…]-3′. Other primer sequences were designed by Primer Express (Applied Biosystems).

tunicamycin [Tm]
induction of CREBH mRNA: minor effect
